Here are results for two molecules from patent US12110283B2, “Carbonic anhydrase targeting agents and methods of using same” (VisEn Medical, Inc., priority 2011, dated 2024).

Usually Ki stands for a dissociation constant, usually derived from enzyme kinetics or from competition with a known ligand. Read a high Ki as lower affinity.

The target of assay [1] is CA II (Homo sapiens, UniProt P00918). The assay can be described thus: Ki by stopped flow CO2 hydration assay, CA II. The class given is biochemical. The conditions noted are these: rate of CO2 hydration, stopped flow method. As for the experimental part:
(§1) In this experiment, Ki values were determined by measuring the rate of CO2 hydration of the CA spectrophotometrically by a stopped flow method in the presence of varying concentrations of the CA agents.

For assay [2], the target named is T1, CA IX (Homo sapiens, UniProt Q16790).
T1 construct: confirming upregulation and expression of CA IX in these cells; endogenous in cells; host or cells: HeLa cells, hypoxic (1% O2) or normoxic
The assay can be described thus: Ki by stopped flow CO2 hydration assay, CA IX. In kind it is biochemical. The conditions noted are these: rate of CO2 hydration, stopped flow method. As for the experimental part:
as §1

For assay [3], the target named is CA XII (Homo sapiens, UniProt O43570). The assay can be described thus: Ki by stopped flow CO2 hydration assay, CA XII. The class given is biochemical. To be noted: rate of CO2 hydration, stopped flow method. As for the experimental part:
as §1

The target in assay [4] is CA XIV (Homo sapiens, UniProt Q9ULX7). Put plainly: Ki by stopped flow CO2 hydration assay, CA XIV. The conditions noted are these: rate of CO2 hydration, stopped flow method. In kind it is biochemical. The method, then: as §1
Assay [5] deals with T1, CA IX. The assay can be described thus: Carbonic anhydrase dependent binding of CA agents to HeLa cells (fluorescence microscopy, flow cytometry). In kind it is cell-based. The conditions noted are these: for binding to hypoxic HeLa cells, flow cytometry (FIG. 3) / binding to hypoxic and normoxic HeLa cells, fluorescence microscopy (FIG. 2): HeLa cells 24 h in air or 1% O2, agents 1 μM, 30 min; for binding to hypoxic HeLa cells after excess acetazolamide, fluorescence microscopy (FIG. 2) / signal on hypoxic HeLa cells with acetazolamide, flow cytometry (FIG. 3): acetazolamide 100 μM for 2 hour before the agent. As for the experimental part:
Cell binding assays using HeLa cells cultured under […] were performed. Hela cells (28,000 cells/cm^2) were cultured in 6 well culture plates for 24 h under normoxic (air) or hypoxic (1% O2) conditions. Incubation with a fluorescent anti CA IX Ab (R&D systems) was performed in one well as a positive control followed by incubation for 1 h at 37° C. Carbonic anhydrase agents A5 and A3 (1 μM) or nonbinding control agent D3 were added to individual wells followed by incubation for 30 min. Cells were rinsed three times with PBS then scraped with 2 mL, transferred to 5 mL tubes and then spun for 10 min at 1000 rpm to discard the PBS. The cells were then re-suspend the cells in 400 μL PBS and analyzed by fluorescence microscopy and flow cytometry. For fluorescence microscopy, nuclei were co-stained with DAPI. For the competition study, cells were incubated with acetazolamide (Az) (100 μM) for 2 hour before incubation with agents.
In general terms: In flow cytometry, cells or beads pass a laser one at a time.

The structures appear in SMILES notation.

CA XIV, sequence (Q9ULX7 16-337, species assumed): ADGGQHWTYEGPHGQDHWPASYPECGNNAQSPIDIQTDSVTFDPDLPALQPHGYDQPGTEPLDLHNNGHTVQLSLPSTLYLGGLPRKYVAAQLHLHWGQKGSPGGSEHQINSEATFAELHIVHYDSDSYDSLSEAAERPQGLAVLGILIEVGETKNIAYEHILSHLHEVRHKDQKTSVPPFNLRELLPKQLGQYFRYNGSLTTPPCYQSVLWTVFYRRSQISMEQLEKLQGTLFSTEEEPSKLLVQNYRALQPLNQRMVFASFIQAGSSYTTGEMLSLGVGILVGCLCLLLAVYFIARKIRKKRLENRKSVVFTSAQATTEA
CA XII, sequence (O43570 25-354, species assumed): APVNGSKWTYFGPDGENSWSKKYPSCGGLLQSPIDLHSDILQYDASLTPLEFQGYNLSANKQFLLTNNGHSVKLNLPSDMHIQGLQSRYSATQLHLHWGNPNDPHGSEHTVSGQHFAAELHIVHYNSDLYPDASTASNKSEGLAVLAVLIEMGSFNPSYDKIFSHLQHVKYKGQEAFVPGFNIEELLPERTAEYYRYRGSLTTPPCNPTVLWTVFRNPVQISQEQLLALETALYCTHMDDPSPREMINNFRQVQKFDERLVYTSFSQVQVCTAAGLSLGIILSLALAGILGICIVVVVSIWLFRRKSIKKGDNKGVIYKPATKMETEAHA

Regarding `CC1(C)C(/C=C/C(=C/C=C2/N(CCCS(=O)(=O)O)c3ccc4c(S(=O)(=O)O)cc(S(=O)(=O)O)cc4c3C2(C)C)c2ccc(C(=O)NCCCCCC(=O)NCc3ccc(C(=O)Nc4nnc(S(N)(=O)=O)s4)cc3)cn2)=[N+](CCCS(=O)(=O)[O-])c2ccc3c(S(=O)(=O)O)cc(S(=O)(=O)O)cc3c21` [Compound A3, 3-(2-((1E,3Z,5E)-5-(1,1-dimethyl-6,8-disulfo-3-(3-sulfopropyl)-1H-benzo[e]indol-2(3H)-ylidene)-3-(5-((6-oxo-6-((4-((5-sulfamoyl-1,3,4-thiadiazol-2-yl)carbamoyl)benzyl)amino)hexyl)carbamoyl)pyridin-2-yl)penta-1,3-dien-1-yl)-1,1-dimethyl-6,8-disulfo-1H-benzo[e]indol-3-ium-3-yl)propane-1-sulfonate], affinity in assay [1] was put at a Ki of 0.0098 µM. Besides, in assay [2], the inhibition constant (Ki) came out at 0.0076 µM. Also, the Ki in assay [3] turned out to be 0.036 µM. This molecule came in with a Ki in assay [4] of 0.057 µM. Besides, in assay [5], the “binding to hypoxic HeLa cells, flow cytometry (FIG. 3)” value is listed as “increased binding”; the “binding to hypoxic and normoxic HeLa cells, fluorescence microscopy (FIG. 2)” value is given as “bound to CA IX receptors on the surface of the hypoxic cells but not normoxic cells”; the “binding to hypoxic HeLa cells after excess acetazolamide, fluorescence microscopy (FIG. 2)” value is on record as “binding can be blocked”; the “signal on hypoxic HeLa cells with acetazolamide, flow cytometry (FIG. 3)” value is given as “blocking of the signal”.

For `CC1(C)C(/C=C/C(=C/C=C2/N(CCCS(=O)(=O)O)c3ccc4c(S(=O)(=O)O)cc(S(=O)(=O)O)cc4c3C2(C)C)c2ccc(C(=O)NCc3ccc(C(=O)Nc4nnc(S(N)(=O)=O)s4)cc3)cn2)=[N+](CCCS(=O)(=O)[O-])c2ccc3c(S(=O)(=O)O)cc(S(=O)(=O)O)cc3c21` [Compound A5, 3-(2-((1E,3Z,5E)-5-(1,1-dimethyl-6,8-disulfo-3-(3-sulfopropyl)-1H-benzo[e]indol-2(3H)-ylidene)-3-(5-((4-((5-sulfamoyl-1,3,4-thiadiazol-2-yl)carbamoyl)benzyl)carbamoyl)pyridin-2-yl)penta-1,3-dien-1-yl)-1,1-dimethyl-6,8-disulfo-1H-benzo[e]indol-3-ium-3-yl)propane-1-sulfonate], the Ki in assay [1] amounted to 0.271 µM; in assay [2], 0.0079 µM; in assay [3], 0.043 µM; in assay [4] it was 0.045 µM. For the same molecule, the “binding to hypoxic HeLa cells, flow cytometry (FIG. 3)” value in assay [5] is “increased binding”. In assay [5], the “binding to hypoxic and normoxic HeLa cells, fluorescence microscopy (FIG. 2)” value is “bound to CA IX receptors on the surface of the hypoxic cells but not normoxic cells”. For the same molecule, in assay [5], the “binding to hypoxic HeLa cells after excess acetazolamide, fluorescence microscopy (FIG. 2)” value was “binding can be blocked”. For the same molecule, the “signal on hypoxic HeLa cells with acetazolamide, flow cytometry (FIG. 3)” value in assay [5] was “blocking of the signal”.
